3 molecules from patent US8058306B2, “Phenyl pyrrole aminoguanidine derivatives” (Action Pharma A/S, priority 2006, dated 2011) can be followed below.

Test [1] has as its target T1, human MC3 receptor (Homo sapiens, UniProt P41968).
T1 construct: expressed in transfected cells; host or cells: CHO cells
Nature of the test: [125I]-NDP-MSH radio-ligand binding, MC3 (h) receptor (recombinant CHO cells). As to conditions: 60 min/37° C. As for the experimental part:
(§1) Determination of binding affinities for MC receptors was performed by [^125I]-[Nle4,D-Phe7]α-MSH ([^125I]-NDP-MSH) radio-ligand binding. In short, murine B16-F1 melanoma cells expressing MC1, but not other MC receptors, were used for binding affinity studies against the murine MC1 receptor (Siegrist et al.; 1988, J. Recept. Res., 8(1-4):323-43). For human MC3, MC4 and MC5 receptor affinities human recombinant CHO cells were used (Schioth et al. 1997, Neuropeptides 31:565-71, 1997). Cells were suspended in HEPES buffer and by use of microwell plates radio-ligands, as well as test compound, in the concentration range of 10^−10 to 10^−6 were added. After incubation at 37° C. (22° C. for the MC1 receptor assay) separation of bound and free [^125I]-NDP-MSH was done by multiple washings with buffer.
(§2) The results were expressed as a percent of control specific binding obtained in the presence of the test compounds. The IC50 values (concentration causing a half-maximal inhibition of control specific binding) and Hill coefficients (nH) were determined by non-linear regression analysis of the competition curves using Hill equation curve fitting. The inhibition constants (Ki) were calculated from the Cheng Prusoff equation (Ki=IC50/(1+(L/KD)), where L=concentration of radio-ligand in the assay, and KD=affinity of the radio-ligand for the receptor).

Test [2] addresses T2, human MC4 receptor (Homo sapiens, UniProt P32245).
T2 construct: expressed in transfected cells; host or cells: CHO cells
Nature of the test: [125I]-NDP-MSH radio-ligand binding, MC4 (h) receptor (recombinant CHO cells). The following applies: 120 min/37° C. As to the method:
as §1, §2

The target of test [3] is T3, human MC5 receptor (Homo sapiens, UniProt P33032).
T3 construct: expressed in transfected cells; host or cells: CHO cells
Nature of the test: [125I]-NDP-MSH radio-ligand binding, MC5 (h) receptor (recombinant CHO cells). The following applies: 60 min/37° C. As to the method:
as §1, §2

In test [4] the test system is TNF-α. Nature of the test: Inhibition of LPS-induced TNF-α production in rats. The following applies: for Serum TNF-α measured 120 after initiation of LPS infusion: mean ± SE, N = 6; for reduction of serum level of TNF-α compared to vehicle treatment: 5.0 mg/kg dose level, 120 min after initiation of LPS infusion. It counts as in vivo, rat. As to the method: (§3) Experimental animals. Female Wistar rats (˜250 g) were obtained from the Charles River, Sulzfeld, Germany, and housed in a temperature- (22-24° C.) and moisture-controlled (40-70%) room with a 12 h light-dark cycle (light on from 6:00 A.M. to 6:00 P.M.). The rats were maintained on a standard rodent diet with 140 mmol/kg of sodium, 275 mmol/kg potassium and 23% protein (Altromin International, Lage, Germany) and had free access to water.
(§4) Animal preparation. […] After instrumentation, the animals were housed individually for 7-10 days until the day of the experiment.
(§5) Experimental protocol. Prior to the experiments all rats were adapted to the restraining cage used for the experiments by training. On the day of the experiment, the animal were transferred to a restraining cage, and an intravenous infusion of vehicle solution containing 150 mM glucose was started. The infusion rate was 0.5 ml/h throughout the experiment. After a short adaptation period, infusion of lipopolysaccharide (LPS) was started. LPS (E. coli serotype 0127 B8, L 3129, Sigma, St. Louis, USA) was given at a dose of 4 mg/kg body weight delivered as an i.v. infusion over 1 hour.
(§6) Arterial blood samples of 0.3 ml were taken 120 minutes after start of the LPS infusion.
(§7) In addition to LPS infusion all rats were treated with a bolus injection of:
(§8) Vehicle (0.5 mL 20% PEG200) or test compound in one of the following doses:
(§9) 0.1; 1.0; 5.0 mg/kg given intravenously 5 min prior to initiation of the LPS infusion.
(§10) Test compounds: Compound 1 of the invention (FIG. 1A, structure no. 1), compound 2 of the invention (FIG. 1D, structure no. 19) and compound 3 of the invention (FIG. 1I, structure no. 53).
(§11) Measurement of TNF-α and IL-10 in plasma: The blood samples were collected in a prechilled test tube with 0.5 mM EDTA, pH 7.4, and 20×10^6 IU/ml aprotinin. After centrifugation at 4° C., plasma samples were transferred to pre-chilled test tubes and stored at −20° C. for later measurements of TNF-α and IL-10. TNF-α and Il-10 in plasma were determined by an ELISA (Biotrak, Amersham, UK).
(§12) Statistical analyses. Results are presented as means±SE. A two-way ANOVA for repeated measures was used to test for differences between groups. In case of P<0.05, the differences between corresponding periods are evaluated by unpaired t-tests with Bonferroni's correction of the level of significance.

In test [5] the test system is IL10. Nature of the test: Inhibition of LPS-induced IL10 production in rats. The following applies: for Serum IL10 measured 120 after initiation of LPS infusion: mean ± SE, N = 6; for reduction of serum level of IL10 compared to vehicle treatment: 5.0 mg/kg dose level; for dose level of maximal effect (IL10): doses tested 0.1, 1.0, 5.0 mg/kg i.v. It counts as in vivo, rat. As for the experimental part: as §3, §4, §5, §6, §7, §8, §9, §10, §11, §12

[6] abbreviates: 0.1 mg/kg i.v. 5 min prior to LPS.
Setting [7] is: 1.0 mg/kg i.v. 5 min prior to LPS.
Setting [8] is: 5.0 mg/kg i.v. 5 min prior to LPS.
Where [9] appears, read: 120 min after initiation of LPS infusion.

A value given as a limit tells only on which side of the number the result lay.

T1 sequence (P41968 whole entry): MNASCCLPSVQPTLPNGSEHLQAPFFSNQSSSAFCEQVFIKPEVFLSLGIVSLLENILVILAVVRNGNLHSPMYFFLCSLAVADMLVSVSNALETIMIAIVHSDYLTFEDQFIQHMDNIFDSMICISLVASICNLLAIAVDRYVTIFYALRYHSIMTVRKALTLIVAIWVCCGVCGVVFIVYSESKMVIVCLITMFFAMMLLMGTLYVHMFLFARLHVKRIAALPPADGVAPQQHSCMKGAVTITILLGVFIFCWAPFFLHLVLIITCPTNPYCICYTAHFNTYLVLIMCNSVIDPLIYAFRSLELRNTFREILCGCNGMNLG
T2 sequence (P32245 whole entry): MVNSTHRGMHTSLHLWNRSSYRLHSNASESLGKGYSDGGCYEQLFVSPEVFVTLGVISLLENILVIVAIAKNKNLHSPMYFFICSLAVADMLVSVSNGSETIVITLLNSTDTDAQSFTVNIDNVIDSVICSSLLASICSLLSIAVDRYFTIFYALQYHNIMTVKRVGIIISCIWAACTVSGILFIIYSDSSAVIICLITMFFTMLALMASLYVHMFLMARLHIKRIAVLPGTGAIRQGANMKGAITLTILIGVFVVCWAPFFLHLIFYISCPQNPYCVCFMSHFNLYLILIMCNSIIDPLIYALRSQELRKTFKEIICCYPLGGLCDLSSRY
T3 sequence (P33032 whole entry): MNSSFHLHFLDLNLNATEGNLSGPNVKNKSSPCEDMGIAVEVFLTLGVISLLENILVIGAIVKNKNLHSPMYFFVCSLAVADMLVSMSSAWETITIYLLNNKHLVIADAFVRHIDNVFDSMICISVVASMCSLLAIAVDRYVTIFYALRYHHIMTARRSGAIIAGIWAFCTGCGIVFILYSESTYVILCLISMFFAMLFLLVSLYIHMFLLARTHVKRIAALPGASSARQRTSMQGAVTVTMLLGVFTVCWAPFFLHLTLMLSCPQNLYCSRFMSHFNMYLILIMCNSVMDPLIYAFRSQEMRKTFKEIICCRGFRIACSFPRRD

By Ki is commonly meant the equilibrium dissociation constant of an inhibitor or competing ligand from its target. As to `N=C(N)NN=CC=Cc1cccn1-c1ccc(Cl)cc1` [Compound 1, [1-(4-chlorophenyl)-1H-pyrrol-2-yl-allylideneamino]guanidinium acetate], the figures for the inhibition constant Ki in test [1], in test [2] and in test [3] were above 1000 nM, 620 nM and above 1000 nM, respectively. The figures for the “Serum TNF-α measured 120 after initiation of LPS infusion” value (from here on “Serum TNF-α”) in test [4] (setting [6]), in test [4] (setting [7]) and in test [4] (setting [8]) were 10830 ± 4031 pg/mL, 6230 ± 1786 pg/mL and 5800 ± 703 pg/mL, respectively. Further, in test [4], the “reduction of serum level of TNF-α compared to vehicle treatment” value is on record as around 60%. For the same molecule, the results for the “Serum IL10 measured 120 after initiation of LPS infusion” value (“Serum IL10” below) in test [5] (setting [6]), in test [5] (setting [7]) and in test [5] (setting [8]) were 8485 ± 960 pg/mL, 5978 ± 890 pg/mL and 5651 ± 325 pg/mL, respectively. In test [5] (setting [9]), the “reduction of serum level of IL10 compared to vehicle treatment” value is given as around 25%. Moreover, the “dose level of maximal effect (IL10)” value in test [5] amounted to 5.0 mg/kg.
For the molecule `N=C(N)NN=CC=Cc1cccn1-c1ccccc1[N+](=O)[O-]` [Compound 2, [1-(2-nitrophenyl)-1H-pyrrol-2-yl-allylideneamino]guanidinium acetate], the inhibition constant Ki in test [1], in test [2] and in test [3] was above 1000 nM in each case. The “Serum TNF-α” value in test [4] (setting [6]) worked out at 5964 ± 957 pg/mL; in test [4] (setting [7]) it was 6130 ± 601 pg/mL; in test [4] (setting [8]) it was 8380 ± 2694 pg/mL. In addition, the “dose level of maximal anti-inflammatory effect (TNF-α)” value in test [4] (doses tested 0.1, 1.0, 5.0 mg/kg i.v.) was 0.1 mg/kg. Further, the “Serum IL10” value in test [5] (setting [6]) came to 7606 ± 1313 pg/mL; in test [5] (setting [7]), 4770 ± 1387 pg/mL; in test [5] (setting [8]), 4053 ± 894 pg/mL. The “reduction of serum level of IL10 compared to vehicle treatment” value in test [5] (setting [9]) was around 46%. For the same molecule, the “dose level of maximal effect (IL10)” value in test [5] worked out at 5.0 mg/kg.
For `N=C(N)NN=CC=Cc1cccn1-c1ccccc1Br` [Compound 3, [1-(2-bromophenyl)-1H-pyrrol-2-yl-allylideneamino]guanidinium acetate], the Ki in test [1] was 630 nM; in test [2], 300 nM; in test [3], above 1000 nM. The “Serum TNF-α” value in test [4] (setting [6]) was 10310 ± 2728 pg/mL; in test [4] (setting [7]), 5250 ± 1113 pg/mL; in test [4] (setting [8]) it was 5020 ± 862 pg/mL. Further, the “reduction of serum level of TNF-α compared to vehicle treatment” value in test [4] was around 60%. Moreover, the “Serum IL10” value in test [5] (setting [6]) was 5658 ± 1119 pg/mL; in test [5] (setting [7]), 3452 ± 1091 pg/mL; in test [5] (setting [8]), 3856 ± 973 pg/mL. Also, the “reduction of IL10 response compared to vehicle treatment” value in test [5] (1.0 mg/kg dose level, 120 min after initiation of LPS infusion) was around 55%. Also, in test [5], the “dose level of maximal effect (IL10)” value is recorded as 1.0 mg/kg.
